The values that follow come from patent US9115061B2, “Naphthalene-based inhibitors of anti-apoptotic proteins” (BURNHAM INSTITUTE FOR MEDICAL RESEARCH, priority 2007, dated 2015).

In series [1] the target is Mcl-1 (Homo sapiens (Human), UniProt Q07820). The following applies: cited from earlier work.
In series [2] the test system is H1299. The conditions noted are these: cited from earlier work.
Series [3] addresses GST-BCL-2 (Homo sapiens (Human), UniProt P10415). As to the kind of experiment: Fluorescence polarization assay (FITC-Bim BH3 peptide). The following applies: read-out: EC50 FPA BCL-2. The format is binding. As for the experimental part:
After 30 min incubation at room temperature, the polarization values in millipolarization units were measured at excitation/emission wavelengths of 480/535 nm with a multilabel plate reader (PerkinElmer). IC50 was determined by fitting the experimental data to a sigmoidal dose-response nonlinear regression model (SigmaPlot 10.0.1, Systat Software, Inc., San Jose, Calif., USA). Data reported are mean of three independent experiments ±standard error (SE). Performance of BCL-2 and Mcl-1 FPA are similar. […] Fluorescence polarization was measured after 10 min.
For orientation: In fluorescence polarisation assays a small probe gives low polarisation when free and higher when bound to something large.

Series [4] deals with H460 cell line. Put plainly: Cell viability, ATP-LITE assay. Type of series: cell-based, human. The conditions noted are these: 72 hours, ATP-LITE. The protocol:
(§1) The activity of the compounds against human cancer cell lines (PC3ML, H460, H1299, RS11846) were assessed by using the ATP-LITE assay (PerkinElmer). All cells were seeded in either F12 or RPMI1640 medium with 5 mM L-glutamine supplemented with 5% fetal bovine serum (Mediatech Inc.), penicillin and streptomycin (Omega). For maintenance, cells were cultured in 5% FBS. Cells plated into 96 well plates at varying initial densities depending on doubling time. H460 and H1299 plated at 2000 cells/well, A549 and PC3 at 3000 cells/well, and RS118456S at 10,000 cells/well. Compounds were diluted to final concentrations with 0.1% DMSO. Prior to dispensing compounds onto cells, fresh 5% media was placed into wells. Administration of compounds occurred 24 hours after seeding into the fresh media. Cell viability was evaluated using ATP-LITE reagent (PerkinElmer) after 72 hours of treatment. Data were normalized to the DMSO control-treated cells using Prism version 5.01 (Graphpad Software).

For series [5], the system named is PC3ML cells. Put plainly: Cell viability, ATP-LITE assay. The format is cell-based, human. The following applies: 72 hours, ATP-LITE. As for the experimental part:
as §1

In series [6] the test system is RS11846 cell line. Put plainly: Cell viability, ATP-LITE assay. The following applies: 72 hours. Type of series: cell-based, human. As for the experimental part:
as §1

The subject of series [7] is RS11846 cell line. Put plainly: Apoptosis, Annexin V and propidium iodide assay. Type of series: cell-based, human. The conditions noted are these: 1-2 days; read-out: RS11846 EC50 (Annexin V- and propidium iodide assay).
The nature of series [8]: Plasma stability. The format is in vitro ADME, rat. The following applies: rat plasma, 1 h, 37.5° C. As for the experimental part: A 20 μL aliquot of a 10 mM solution in DMSO of the test compound was added to […] of heparinized rat plasma (Lampire, P1-150N) to obtain a 100 μM final solution. The mixture was incubated for 1 h at 37.5° C. Aliquots of 100 μL were taken (0, 30 min, 1 h) and diluted with 200 μL of MeOH containing internal standard.

The subject of series [9] is Balb/c mice. As to the kind of experiment: Oral toxicity study in normal Balb/c mice. The format is in vivo, mouse. As for the experimental part: Compounds or vehicle control were dosed 15 times over 3 weeks, giving compounds daily for 5 consecutive days (Monday-Friday), resting on weekends.
Both compounds were provided by NCI-DTP (RAID-program). Compounds were dissolved in 100% sesame oil just before oral administration. Vehicle-control consisted of corresponding concentration of ascorbic acid suspended in 100% sesame oil.
(§2) Spleens were removed and weighed.
Whole blood (250 μl) was collected in EDTA-coated glass tubes (purple top; MICROTAINER Brand Tube with EDTA, Catalogue #365973, Becton, Dickinson and Company, New Jersey 07417-1885) via either cardiac puncture or severing the brachial artery of anesthetized mice. After thorough mixing, specimens were analyzed using a VetScan HM2 (Abaxis Inc., Union City, Calif. 94587) hematology analyzer, measuring white blood cell count (WBC), red blood cell count (RBC), platelet (PLT) count, leukocyte differential (including % lymphocyte, % monocyte and % granulocyte), hematocrit (Ht), and hemoglobin (Hb).
(Eppendorf Centrifuge 5415C) for 2 minutes to separate serum from cells and fibrin clot. The resulting serum specimens were analyzed using an automated blood chemistry analyzer (“COBAS MIRA Classic”; Roche, Indianapolis, Ind. 46250-0414) to measure alanine aminotransferase (ALT) and aspartate aminotransferase AST), blood urea nitrogen (BUN), and […].
Stomach and intestines were examined also imaged by ultrasound for evidence of dilation, an indication of GI toxicity. Briefly, mice were anesthetized using a mixture of isofluorane (5%) and oxygen gas (95%), restrained on a heated table using Aquagel Lubrication Gel (Parker Laboratories, Inc., Fairfield, N.J. 07004), and abdominal hair was removed with a chemical depilation agent (Nair™ Hair Removal, Church & Dwight Co., Inc., Princeton, N.J. 08543). Aquasonic 100 Ultrasound Transmission Gel (Parker Laboratories, Inc., Fairfield, N.J. 07004) was applied to the abdomen prior to imaging using a high-frequency probe to assess gas and intestinal distention.
Immediately after ultrasound imaging, electrocardiogram (ECG) analysis of anesthetized mice was performed using a MP150 Biopack System.

Series [10] deals with 380 cell line. As to the kind of experiment: Apoptosis induction in NHL B-cell lines, Annexin V-FITC/PI. The format is cell-based. The following applies: 48 hours, relative to DOHH2 and RS11846. The protocol:
(§3) After 48 hours of incubation, % viability was determined by FACSort after staining cells by the use of an Annexin V-FITC/PI Apoptosis Detection kit (BioVision Inc.). Viable cells were defined by Annexin V-negative, PI-negative cells.

Series [11] has as its system DOHH2 cell line. The series is described as above. Type of series: cell-based. The conditions noted are these: 48 hours; read-out: IC50, % viability DOHH2. As for the experimental part: as §3
Series [12] deals with RS11846 cell line. The series is described as above. The format is cell-based. The conditions noted are these: 48 hours; read-out: IC50, % viability RS11846. As for the experimental part:
as §3

Series [13] relates to murine B-cells from BCL-2 transgenic mice. As to the kind of experiment: Viability of cultured splenocytes, Annexin V-FITC/PI. The format is cell-based. The following applies: 18 hours; read-out: IC50, induction of apoptosis in cultured B-cells of BCL-2 transgenic mouse. As for the experimental part:
(§4) Spleens were excised from sacrificed mice and cell suspensions treated with a mouse erythrocyte lysing kit (R & D Systems). Total splenocyte count was determined by typan blue dye exclusion assays using hemocytometers. The percentage of B-lymphocytes was determined by fluorescence activated cell sorter (FACS) analysis SACS-CANTO, Bectin-Dickinson Inc., Mountain View, Calif.) following staining cells with Phyco-Erytrin (PE)-conjugated anti-CD19 or -B220 antibodies (Becton Dickinson, San Jose, Calif. 95131).
After 18 hours of incubation, % viability of splenocytes was determined by FACSort after staining cells by the use of an Annexin V-FITC/PI Apoptosis Detection kit (BioVision Inc.). Viable cells were defined by Annexin V-negative, PI-negative cells.

Series [14] has as its system BCL-2 transgenic mice. Put plainly: Oral efficacy study in BCL-2 transgenic mice (splenomegaly). Type of series: in vivo, mouse. As for the experimental part:
The transgene was propagated on the Balb/c background.
as §2, §4
Representative data are shown by FIGS. 11A and 11B.

A short description of series [15]: Liver microsomal stability. The following applies: rat liver microsomes, 4 μM, 60 min. (In general: Microsomes from liver hold many membrane-bound enzymes, among them those of drug oxidation.)
Protocol: Pooled rat liver microsomes (BD Biosciences, #452701) were preincubated with test compounds at 37.5° C. for 5 min in the absence of NADPH. The reaction was initiated by addition of NADPH and then incubated under the same conditions. […] One aliquot (100 μL) of the incubation mixture was withdrawn at 0, 15, 30, and 60 min and combined immediately with 200 μL of ACN/MeOH containing an internal standard. After mixing, the sample was centrifuged at approximately 13,000 rpm for 12 min. The supernatant was transferred into an autosampler vial and the amount of test compound was quantified using the Shimadzu LCMS 2010EV mass spectrometer. The change of the AUC (area under the curve) of the parent compound as function of time was used as a measure of microsomal stability.
A short description of series [16]: PAMPA (parallel artificial membrane permeation assay). The following applies: PAMPA, pH 7.2, 8 h. In general terms: In PAMPA a lipid-coated filter parts donor from acceptor wells.
Protocol: PAMPA is parallel artificial membrane permeation assay. A 96-well microtiter plate (Millipore, # MSSACCEPTOR) was completely filled with aqueous buffer solution (pH 7.2) and covered with a microtiter filterplate (Millipore, # MAPBMN310). The hydrophobic filter material was impregnated with a 10% solution of hexadecane in hexane and the organic solvent was allowed to completely evaporate. Permeation studies were started by the transfer of 200 μL of a 100 μM test compound solution on top of the filterplate. In general phosphate buffer at pH 7.2 buffer was used. The maximum DMSO content of the stock solutions was <5%. In parallel, an equilibrium solution lacking a membrane was prepared using the exact concentrations and specifications but lacking the membrane. The concentrations of the acceptor and equilibrium solutions were determined using the Shimadzu LCMS-2010EV and AUC methods. The permeation of a compound through the membrane layer is described by the percentage permeation (% flux). The flux values were calculated considering the concentration of the acceptor compartment after 8 h and that of a reference well with the same concentration containing no membrane barrier.
For series [17], the system named is MCF7 cells. Put plainly: XTT dye reduction assay. The following applies: three days. The format is cell-based, human. As for the experimental part:
(§5) The effects of the compounds on viability of tumor cells in culture were monitored by using XTT assays with MCF7 and ZR75-1 cell lines. MCF7 cells were grown in DMEM containing 10% fetal bovine serum, penicillin/streptomycin, supplemented with 10^−10 M insulin, 1 mM sodium pyruvate and glutamine. ZR75-1 cells were grown in RPMI containing 10% fetal bovine serum, penicillin/streptomycin, supplemented with HEPES buffer, 1 mM sodium pyruvate and glutamine. Cells were regularly tested for mycoplasma contamination. Cells were seeded triplicates at an initial cell density of 1,000 cells per well. Blank wells received no cells.
(§6) Relative numbers of viable cells was determined by XTT assay. Briefly, in a 96-well plate, we added 50 μl of a mixture of 1 mg/ml of XTT (2,3-bis(2-methoxy-4-nitro-5-sulfophenyl)-5-[(phenylamino)carbonyl]-2H-tetrazolium hydroxide) (Polysciences, Washington, Pa.) containing 0.025 mM PMS (phenazine methosulfate) to each well. The 96-well plates were reincubated for an additional 4 hours to allow for XTT formazan production. Then, the contents of each plate were mixed and optical densities were determined at a wavelength of 450 nm (OD450). Net OD450 was determined after subtracting OD450 of blank wells. Low-passage HeLa cells (between passage number 10 and 20) were transfected with pcDNA3-BCL-XL or control pcDNA3 plasmids using Lipofectamine Plus reagent (Invitrogen) and selected in medium containing 800 μg/ml of G418. Immunoblot analysis of BCL-XL was accomplished as previously described.

The subject of series [18] is ZR75-1 cells. As to the kind of experiment: XTT dye reduction assay. Type of series: cell-based, human. The following applies: three days. The protocol: as §5, §6
For series [19], the target named is BCL-XL (Homo sapiens (Human), UniProt Q07817). As to the kind of experiment: Fluorescence polarization assay with fluorescein-labeled Bad peptide. The format is binding. The following applies: Table 5. The protocol:
FP A assays were conducted with a fluorescein-labeled Bad peptide (NL […] Corporation, Dublin, Calif.) using a LJL Analyst HT Molecular Devices Co., Sunnyvale, Calif.). […] The tubes were incubated for 5 minutes at room temperature and 20 μl each of reaction mixture was transferred to 96-well black PS, HE Microplate (LJL Biosystems Co). All assays were performed in quadruplicate, with blank wells receiving no Gossypol. […] Controls included dose-responses measurements in absence of the proteins, to assess any interactions between the compounds and the FITC-BH3 peptide. Eventual effects were taken into account by subtraction.

Sequence of Mcl-1 (Q07820 whole entry): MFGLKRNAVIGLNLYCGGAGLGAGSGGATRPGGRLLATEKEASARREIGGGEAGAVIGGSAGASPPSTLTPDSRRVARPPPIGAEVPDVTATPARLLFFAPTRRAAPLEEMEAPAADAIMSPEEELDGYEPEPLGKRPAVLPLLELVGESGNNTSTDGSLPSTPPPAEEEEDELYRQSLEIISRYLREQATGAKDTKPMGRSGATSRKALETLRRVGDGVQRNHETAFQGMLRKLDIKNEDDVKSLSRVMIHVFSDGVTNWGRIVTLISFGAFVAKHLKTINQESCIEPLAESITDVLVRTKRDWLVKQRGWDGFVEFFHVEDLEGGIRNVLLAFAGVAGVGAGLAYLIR
Sequence of GST-BCL-2 (P10415 whole entry): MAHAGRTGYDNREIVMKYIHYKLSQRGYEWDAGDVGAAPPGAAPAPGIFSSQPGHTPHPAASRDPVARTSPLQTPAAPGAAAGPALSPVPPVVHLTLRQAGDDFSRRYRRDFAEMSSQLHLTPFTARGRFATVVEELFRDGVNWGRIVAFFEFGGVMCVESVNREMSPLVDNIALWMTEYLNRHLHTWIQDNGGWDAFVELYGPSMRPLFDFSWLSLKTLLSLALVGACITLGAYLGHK
Sequence of BCL-XL (Q07817 whole entry): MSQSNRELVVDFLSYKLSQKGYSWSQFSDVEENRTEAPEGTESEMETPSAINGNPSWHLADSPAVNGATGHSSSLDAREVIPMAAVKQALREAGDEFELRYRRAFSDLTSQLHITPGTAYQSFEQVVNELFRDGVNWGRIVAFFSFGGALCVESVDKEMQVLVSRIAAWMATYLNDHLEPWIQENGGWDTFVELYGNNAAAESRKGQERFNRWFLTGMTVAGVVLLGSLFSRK

`CN(C)CC[C@H](CSc1ccccc1)Nc1ccc(S(=O)(=O)NC(=O)c2ccc(N3CCN(Cc4ccccc4-c4ccc(Cl)cc4)CC3)cc2)cc1[N+](=O)[O-]` [ABT-737]: the “effectiveness against Mcl-1” value in series [1] is given as “not effective”. In addition, in [2], the “killing of Mcl-1 overexpressing cell lines such as H1299” value was “not effective in killing”.
A word on the EC50: it is the midpoint of the concentration-response curve. In general, IC50 refers to the concentration needed to halve the response being measured. `Cc1cc2c(C(C)C)c(O)c(O)cc2c(O)c1-c1c(C)cc2c(C(C)C)c(O)c(O)cc2c1O` [Apogossypol, apogossypol]: the 50% effective concentration (EC50) in series [3] turned out to be 2800 nM; in series [4], 2800 nM; in [4] (listed as apogossypol), 3400 nM; in [5], 10300 nM; in series [6] it was 5000 nM; in series [7], 8600 nM. Moreover, the “Plasma Stability (T = 1 hr)” value in [8] worked out at 53%. The mice found dead result in series [9] ([…] oral, day 18 of treatment) is “One of 6”. In [9] ([…] oral, three weeks), the “general condition of mice” value is “remained active and apparently healthy”. Besides, the “toxicity, preliminary maximum tolerated dose (MTD) studies” value in [9] (orally or by intraperitoneal injection) is listed as “less toxic than gossypol”. The “sensitivity of 380 cell line” value in series [10] was “slightly more resistant”. The figures for the IC50 in [11], in [12] and in [13] were around 3000 nM, around 3000 nM and 1000 to 2000 nM, respectively. In addition, the “tolerability, low dose” value in series [14] (0.06 mmol/kg oral, QDX5 for 3 weeks) is “well tolerated”. For the same compound, in [14] (0.06 mmol/kg oral, QDX5 for 3 weeks, wet weight and B-cell count), the “shrinkage of spleen, low dose” value is “induced shrinkage of spleen to a significant extent”. Moreover, in series [14] ([…] daily oral), the “spleen size, high dose” value is listed as “reduced roughly by half”. Also, the “tolerability, high dose” value in [14] ([…] oral, QDX5 for 3 weeks) is recorded as “well tolerated”. Also, in series [15], the “Microsomal Stability (T = 1 hr)” value was 60%. The “Cell Permeability” value in series [16] was “Low”.
On to `O=c1c(O)cccc2cc(O)c(O)c(O)c12` [Purpurogallin], for which, in series [17], the “IC50, cell viability MCF7” value is recorded as “did not show appreciable activity”. The “IC50, cell viability ZR75-1” value in [18] is given as “did not show appreciable activity”. Also, the IC50 in series [19] turned out to be 2200 nM.
